Measured values from the NIST ThermoML archive (doi:10.1016/j.jct.2007.10.010).
± gives the expanded uncertainty stated by the source.

Assay: xn = mol fraction of the nth substance listed
Settings: 101 kPa, Liquid

CCCCCCCC [octane] + c1ccccc1
Settings	mass density [kg/m3]
298.15 K, x1 = 0.06831	850.82 ± 0.37
298.15 K, x1 = 0.1358	831.14 ± 0.4
298.15 K, x1 = 0.2041	813.51 ± 0.43
298.15 K, x1 = 0.2616	800.23 ± 0.45
298.15 K, x1 = 0.3322	785.49 ± 0.48
298.15 K, x1 = 0.3912	774.33 ± 0.49
298.15 K, x1 = 0.4581	762.82 ± 0.51
298.15 K, x1 = 0.5388	750.32 ± 0.53
298.15 K, x1 = 0.6054	740.95 ± 0.55
298.15 K, x1 = 0.664	733.37 ± 0.56
298.15 K, x1 = 0.7116	727.59 ± 0.57
298.15 K, x1 = 0.7979	717.91 ± 0.59
298.15 K, x1 = 0.8682	710.7 ± 0.6
298.15 K, x1 = 0.9264	705.15 ± 0.61
298.15 K, x1 = 1	698.6 ± 0.62
308.15 K, x1 = 0.06734	840.85 ± 0.39
308.15 K, x1 = 0.1335	821.8 ± 0.42
308.15 K, x1 = 0.1989	804.98 ± 0.44
308.15 K, x1 = 0.2562	791.81 ± 0.47
308.15 K, x1 = 0.3283	776.91 ± 0.49
308.15 K, x1 = 0.3888	765.56 ± 0.51
308.15 K, x1 = 0.4682	752.18 ± 0.53
308.15 K, x1 = 0.5284	742.95 ± 0.54
308.15 K, x1 = 0.5971	733.35 ± 0.56
308.15 K, x1 = 0.6592	725.32 ± 0.57
308.15 K, x1 = 0.7248	717.54 ± 0.59
308.15 K, x1 = 0.8156	707.74 ± 0.6
308.15 K, x1 = 0.8852	700.86 ± 0.61
308.15 K, x1 = 0.9515	694.77 ± 0.62
308.15 K, x1 = 1	690.44 ± 0.63
318.15 K, x1 = 0.06734	830.41 ± 0.4
318.15 K, x1 = 0.1335	811.7 ± 0.43
318.15 K, x1 = 0.1932	796.52 ± 0.46
318.15 K, x1 = 0.2511	783.28 ± 0.48
318.15 K, x1 = 0.3289	767.43 ± 0.5
318.15 K, x1 = 0.3937	755.54 ± 0.52
318.15 K, x1 = 0.4681	743.19 ± 0.54
318.15 K, x1 = 0.5302	733.8 ± 0.56
318.15 K, x1 = 0.5866	726.02 ± 0.57
318.15 K, x1 = 0.6709	715.36 ± 0.59
318.15 K, x1 = 0.7248	709.07 ± 0.6
318.15 K, x1 = 0.8156	699.39 ± 0.62
318.15 K, x1 = 0.8852	692.61 ± 0.63
318.15 K, x1 = 0.9515	686.61 ± 0.64
318.15 K, x1 = 1	682.47 ± 0.64
328.15 K, x1 = 0.06734	820.09 ± 0.42
328.15 K, x1 = 0.1335	801.67 ± 0.45
328.15 K, x1 = 0.1932	786.83 ± 0.47
328.15 K, x1 = 0.2511	773.79 ± 0.49
328.15 K, x1 = 0.3289	758.15 ± 0.52
328.15 K, x1 = 0.3937	746.47 ± 0.54
328.15 K, x1 = 0.4681	734.35 ± 0.56
328.15 K, x1 = 0.5302	725.13 ± 0.57
328.15 K, x1 = 0.5866	717.46 ± 0.58
328.15 K, x1 = 0.6709	706.93 ± 0.6
328.15 K, x1 = 0.7248	700.75 ± 0.61
328.15 K, x1 = 0.8156	691.2 ± 0.63
328.15 K, x1 = 0.8852	684.52 ± 0.64
328.15 K, x1 = 0.9515	678.62 ± 0.65
328.15 K, x1 = 1	674.54 ± 0.66

c1ccccc1 [benzene] + CCCCCCCC
x2 = 0
Settings	mass density [kg/m3]
298.15 K	873.62 ± 0.34
308.15 K	863.01 ± 0.35
318.15 K	852.16 ± 0.37
328.15 K	841.49 ± 0.39
